US20140100156A1 (SANOFI, priority 2012, published 2014)

How the values were obtained:
[1] = format: physicochemical; conditions: pH 4.5
Protocol: Prior to the testing of solubility and stability of a peptide batch, its content was determined. Therefore, two parameters were investigated, its purity (HPLC-UV) and the amount of salt load of the batch (ion chromatography). Since synthesized peptides contain primarily trifluoroacetate anions, only anion chromatography was performed.
. Therefore, solutions from solid samples were prepared in different buffer systems with a concentration of 1.0 mg/mL compound based on the previously determined content. HPLC-UV was performed after 2 h of gentle agitation from the supernatant, which was obtained by 20 min of centrifugation at 4000 rpm.
This analysis also served as starting point (t0) for the stability testing.
Instrument: Agilent 1100, column: X-Bridge C18 3.5 μm 2.1×150 mm (Waters), eluent: A: H20+500 ppm TFA/B: Methanol, flow: 0.55 mL/min, gradient: 0-5 min: 10-60% B; 5-15 min: 60-99% B; detection: 214 nm.

human GLP-1 receptor = target: T1, human GLP-1 receptor (Homo sapiens, UniProt P43220); test: cAMP response (HTRF) of HEK-293 cells stably expressing human GLP-1 receptor; format: cell-based; conditions: Table 5, read-out: EC50 hGLP-1R
T1 construct: expressed in transfected cells; host or cells: HEK-293

human glucagon receptor = target: T2, human glucagon receptor (Homo sapiens, UniProt P47871); test: cAMP response (HTRF) of HEK-293 cells stably expressing human glucagon receptor; format: cell-based; conditions: Table 5, read-out: EC50 hGlucagon-R
T2 construct: expressed in transfected cells; host or cells: HEK-293
T2 sequence (P47871 26-477): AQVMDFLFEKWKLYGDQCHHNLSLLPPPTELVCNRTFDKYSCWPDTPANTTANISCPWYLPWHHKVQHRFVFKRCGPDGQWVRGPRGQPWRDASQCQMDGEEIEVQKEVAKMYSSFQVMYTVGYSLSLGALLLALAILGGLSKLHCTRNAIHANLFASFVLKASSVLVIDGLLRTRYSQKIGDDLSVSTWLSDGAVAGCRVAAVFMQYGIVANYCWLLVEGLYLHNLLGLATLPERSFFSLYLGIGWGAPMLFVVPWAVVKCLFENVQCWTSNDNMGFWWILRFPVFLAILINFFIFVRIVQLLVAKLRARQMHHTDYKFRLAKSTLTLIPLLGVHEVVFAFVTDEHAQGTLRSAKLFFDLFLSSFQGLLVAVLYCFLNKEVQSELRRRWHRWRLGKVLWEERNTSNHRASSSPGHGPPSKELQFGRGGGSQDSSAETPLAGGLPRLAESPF

T1 sequence (P43220 24-463): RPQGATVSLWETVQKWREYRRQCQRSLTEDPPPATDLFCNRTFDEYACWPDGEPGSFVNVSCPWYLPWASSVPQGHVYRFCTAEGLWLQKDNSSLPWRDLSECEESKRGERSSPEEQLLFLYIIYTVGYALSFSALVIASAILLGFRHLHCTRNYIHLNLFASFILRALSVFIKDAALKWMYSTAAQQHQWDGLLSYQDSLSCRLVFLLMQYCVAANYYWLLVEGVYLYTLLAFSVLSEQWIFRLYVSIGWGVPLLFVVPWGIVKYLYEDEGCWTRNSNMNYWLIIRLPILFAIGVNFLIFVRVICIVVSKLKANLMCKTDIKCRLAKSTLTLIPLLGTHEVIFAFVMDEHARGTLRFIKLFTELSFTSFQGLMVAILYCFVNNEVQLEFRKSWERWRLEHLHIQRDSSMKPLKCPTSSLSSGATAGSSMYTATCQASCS

Solubility pH4.5 [1]	SMILES	EC50 (human GLP-1 receptor)	EC50 (human glucagon receptor)
0 mg/ml	CCCCCCCCCCCCCCCC(=O)N[C@@H](CCC(=O)NCCCC[C@H](NC(=O)[C@H](C)NC(=O)[C@H](C)NC(=O)[C@H](CCC(N)=O)NC(=O)CNC(=O)[C@H](CCC(=O)O)NC(=O)[C@H](CC(C)C)NC(=O)[C@H](Cc1ccc(O)cc1)NC(=O)[C@H](CO)NC(=O)[C@H](CO)NC(=O)[C@@H](NC(=O)[C@H](CC(=O)O)NC(=O)[C@H](CO)NC(=O)[C@@H](NC(=O)[C@H](Cc1ccccc1)NC(=O)[C@@H](NC(=O)CNC(=O)[C@H](CCC(=O)O)NC(=O)[C@H](C)NC(=O)[C@@H](N)Cc1cnc[nH]1)[C@@H](C)O)[C@@H](C)O)C(C)C)C(=O)N[C@@H](CCC(=O)O)C(=O)N[C@@H](Cc1ccccc1)C(=O)N[C@H](C(=O)N[C@@H](C)C(=O)N[C@@H](Cc1c[nH]c2ccccc12)C(=O)N[C@@H](CC(C)C)C(=O)N[C@H](C(=O)N[C@@H](CCCNC(=N)N)C(=O)NCC(=O)N[C@@H](CCCNC(=N)N)C(=O)NCC(=O)O)C(C)C)[C@@H](C)CC)C(=O)O [compound 195]	–	–
–	CCCCCCCCCCCCCCCC(=O)N[C@@H](CCC(=O)NCCCC[C@H](NC(=O)[C@H](CCC(N)=O)NC(=O)[C@H](CCCCN)NC(=O)[C@H](CO)NC(=O)[C@H](CC(C)C)NC(=O)[C@H](CC(=O)O)NC(=O)[C@H](CO)NC(=O)[C@@H](NC(=O)[C@H](Cc1ccccc1)NC(=O)[C@@H](NC(=O)CNC(=O)[C@H](Cc1c[nH]cn1)NC(=O)[C@H](CO)NC(=O)[C@@H](N)Cc1c[nH]cn1)[C@@H](C)O)[C@@H](C)O)C(=O)N[C@@H](CCC(=O)O)C(=O)N[C@@H](CO)C(=O)N[C@@H](CCCNC(=N)N)C(=O)N[C@@H](CCCNC(=N)N)C(=O)N[C@@H](C)C(=O)N[C@@H](CCC(N)=O)C(=O)N[C@@H](CC(=O)O)C(=O)N[C@@H](Cc1ccccc1)C(=O)N[C@H](C(=O)N[C@@H](CCC(=O)O)C(=O)N[C@@H](Cc1c[nH]c2ccccc12)C(=O)N[C@@H](CC(C)C)C(=O)N[C@@H](CCCCN)C(=O)N[C@@H](C)C(=O)NCC(=O)NCC(=O)N1CCC[C@H]1C(=O)N[C@@H](CO)C(=O)N[C@@H](CO)C(=O)NCC(=O)N[C@@H](C)C(=O)N1CCC[C@H]1C(=O)N1CCC[C@H]1C(=O)N1CCC[C@H]1C(=O)N[C@@H](CO)C(N)=O)[C@@H](C)CC)C(=O)O [compound 208]	2 pM	1.3 pM
